Experimental data: patent publication US5750531A, “Pyrimidine derivatives and processes for the preparation thereof” (Yuhan Corporation, priority 1994, dated 1998)
Structures can show the parent of a compound that is named as a salt.

Assays:
[1] = target: proton pump(H^+ /K^+ ATPase); test: Inhibition of proton pump(H^+ /K^+ ATPase) activity; type: biochemical; settings: pH 6.0, 37° C., 30 minutes preincubation and 30 minutes reaction; read-out: IC50 Test compound
Protocol: Test 1: Inhibition of proton pump(H^+ /K^+ ATPase) activity
A proton pump enzyme source was prepared by the same method as in Experiment 1-1 of WO 94/14795. Further, the inhibitory effect of proton pump activity was measured by the same method as in Experiment 1-2 of WO 94/14795.
Namely, the proton pump activity stimulated by Mg^++ was used as a negative comparative group, and the activity stimulated by Mg^++ and K^+ was used as a positive comparative group. The comparative compound was omeprazole.
Test tubes were divided into 4 groups: Group 1 as negative comparative group(n=3), Group 2 as positive comparative group(n=3), Group 3(n=5×2) to be administered with the compound of the present invention and Group 4(n=5×2) to be administered with the comparative compound.
The inhibitory effects of Groups 3 and 4 on proton pump activity were measured by employing the compound prepared in Example and omeperazole, respectively, each of which was dissolved in dimethylsulfoxide at 5 different concentrations.
To each of Groups 1, 2, 3 and 4 were added 100 μl of magnesium chloride(40 mM) dissolved in 40 mM Tris-HCl buffer(pH 6.0) and 100μ of the enzyme source. Then, 50μ of potassium chloride(50 mM) and 50 μl of ammonium chloride(6 mM) dissolved in 40 mM Tris-HCl buffer(pH 6.0) were added to all groups except for Group 1.
10 μl of dimethylsulfoxide was added to each of Groups 1 and 2; and to Group 3 was added 10 μl of the solution in which the compound prepared in Example was dissolved in dimethylsulfoxide at 5 different concentrations(n=5×2). To Group 4, 10 μl of the solution prepared by dissolving omeprazole in dimethylsulfoxide at 5 different concentrations(37.6, 21.4, 12.2, 7.0 and 4.0 μM) was added(n=5×2). 40 mM Tris-HCl buffer(pH=6.0) was added thereto so as to make the total volume 400 μl.
Thereafter, the test tubes of each Group were placed at 37° C. for 30 minutes for the preincubation. 100 μl of ATP solution (6.6 mM) was added until the reaction volume became 500 μl. After the reaction was carried out at 37° C. for 30 minutes, 25% cold trichloroacetic acid was added to terminate the enzyme reaction. The released inorganic phosphate was measured by an automatic analyzer(Express 550, Corning).
The difference between Group 1 and Group 2 represents the proton pump activity activated by K^+ only. The inhibition percentages of Groups 3 and 4 were calculated from Litchfield-wilcoxon equation[see, e.g., J. pharmacol. Exp. Ther., 96, 99(1949)]. The concentrations of the test compounds which inhibit 50% of the proton pump activity are represented as IC50 in Table 1.

[2] = tested on: gastric secretion; test: Inhibition of gastric secretion (pylorus ligation, Shay method); type: in vivo, Male Sprague-Dawley rats; settings: 20 mg/kg intraduodenally, 5 hours; for Rel. Conc.: acid concentration relative to omeprazole; for Relative Acid Output: acid output relative to omeprazole; for Rel. Vol.: gastric juice volume relative to omeprazole
Protocol: Inhibition of gastric secretion […] Under ether anesthesia, the abdomen was incised, and the pylorus was ligated. […] After closing the abdominal cavity, the rats were placed for 5 hours and then killed by cervical dislocation. The stomach was extracted to obtain gastric juice. The gastric juice was centrifuged at 1,000 g to remove precipitates. The amount and acidity of the gastric juice were measured. Relative volumes, relative acid concentrations and relative acid outputs of the test compounds were calculated from equations(I), (II) and (III) and the results are shown in Table 2. […] Group 3) (II) […] (III)

Row | SMILES | IC50 [1] [µM] | Rel. Conc. [2] | Relative Acid Output [2] | Rel. Vol. [2]
1 | Cc1cc(N2CCc3ccccc3C2)nc(Nc2ccc(F)cc2C)n1.Cl [Example 34, 6-methyl-2-(2-methyl-4-fluorophenylamino)-4-(1,2,3,4-tetrahydroisoquinolin-2-yl)pyrimidine hydrochloride] | 1 | 1 | 0.99 | 0.99
2 | CCc1nc(Nc2ccc(F)cc2)nc(N2CCc3ccccc3C2C)c1C.Cl (centres unmarked) [Example 27, 5-methyl-6-ethyl-2-(4-fluorophenylamino)-4-(1-methyl-1,2,3,4-tetrahydroisoquinolin-2-yl)pyrimidine hydrochloride] | 2.1 | 0.61 | 0.81 | 0.7
3 | Cc1ccccc1Nc1nc2c(c(N3CCc4ccccc4C3)n1)CCCC2.Cl [Example 51, 2-(2-methylphenylamino)-4-(1,2,3,4-tetrahydroisoquinolin-2-yl)-5,6,7,8-tetrahydroquinazoline hydrochloride] | 1.1 | 0.12 | 0.59 | 0.59
4 | Cc1nc(Nc2ccccc2)nc(N2CCc3ccccc3[C@H]2C)c1C [Example 22, (R)-5,6-Dimethyl-2-(4-phenylamino)-4-(1-methyl-1,2,3,4-tetrahydroisoquinolin-2-yl)pyrimidine hydrochloride] | 1.4 | 0.8 | 0.90 | 0.99
5 | Cc1nc(N2CCc3ccccc3[C@@H]2C)nc(Nc2ccc(F)cc2)c1C.Cl [Example 70, (S)-5,6-dimethyl-4-(4-fluorophenylamino)-2-(1-methyl-1,2,3,4-tetrahydroisoquinolin-2-yl)pyrimidine hydrochloride] | 3.5 | 0.22 | 0.61 | 1.3
6 | Cc1cc(F)ccc1Nc1nc(N2CCc3ccsc3C2C)nc(C)c1C.Cl (centres unmarked) [Example 77, 5,6-dimethyl-4-(2-methyl-4-fluorophenylamino)-2-(7-methyl-4,5,6,7-tetrahydrothieno[2,3-c]pyridin-6-yl)pyrimidine hydrochloride] | 3.6 | 1.63 | 1.30 | 1.48
7 | Cc1cc(F)ccc1Nc1nc(N2CCc3ccccc3C2C)nc(C)c1C.Cl (centres unmarked) [Example 65, 5,6-dimethyl-4-(2-methyl-4-fluorophenylamino)-2-(1-methyl-1,2,3,4-tetrahydroisoquinolin-2-yl)pyrimidine hydrochloride] | 1 | 0.35 | 0.71 | 1.43
8 | CCc1cc(N2CCc3ccccc3C2C)nc(Nc2ccc(F)cc2C)n1.Cl (centres unmarked) [Example 5, 6-ethyl-2-(2-methyl-4-fluorophenylamino)-4-(1-methyl-1,2,3,4-tetrahydroisoquinolin-2-yl)pyrimidine hydrochloride] | 1.3 | 0.27 | 0.61 | 0.59
9 | CC1c2ccccc2CCN1c1nc(N(C)c2ccccc2)nc2c1CCC2 (centres unmarked) [Example 31, 2-(N-methylphenylamino)-4-(1-methyl-1,2,3,4-tetrahydroisoquinolin-2-yl)cyclopenta[d]pyrimidine hydrochloride] | ~15 | 0.21 | 0.74 | 0.83
10 | Cc1nc(Nc2ccc(F)cc2)nc(N2CCc3ccccc3[C@@H]2C)c1C.Cl [Example 17, (S)-5,6-dimethyl-2-(4-fluorophenylamino)-4-(1-methyl-1,2,3,4-tetrahydroisoquinolin-2-yl)pyrimidine hydrochloride] | 1.8 | 0.97 | 0.89 | 0.82
11 | Cc1cc(F)ccc1Nc1nc(C)c(C)c(N2CCc3ccccc3C2C)n1.Cl (centres unmarked) [Example 12, 5,6-dimethyl-2-(2-methyl-4-fluorophenylamino)-4-(1-methyl-1,2,3,4-tetrahydroisoquinolin-2-yl)pyrimidine hydrochloride] | 0.6 | 0.29 | 0.75 | 1.64
12 | Cc1ccc(Nc2nc(C)c(C)c(N3CCc4ccccc4C3C)n2)cc1.Cl (centres unmarked) [Example 25, 5,6-dimethyl-2-(4-methylphenylamino)-4-(1-methyl-1,2,3,4-tetrahydroisoquinolin-2-yl)pyrimidine hydrochloride] | 1.4 | 0.8 | 0.92 | 1.06
13 | Cc1cc(F)ccc1Nc1nc(N2CCc3ccccc3C2)nc(C)c1C.Cl [Example 74, 5,6-dimethyl-4-(2-methyl-4-fluorophenylamino)-2-(1,2,3,4-tetrahydroisoquinolin-2-yl)pyrimidine hydrochloride] | 0.5 | 1.49 | 1.16 | 1.22
14 | CCc1cc(Nc2ccc(F)cc2)nc(N2CCc3ccccc3C2)n1.Cl [Example 63, 6-ethyl-4-(4-fluorophenylamino)-2-(1,2,3,4-tetrahydroisoquinolin-2-yl)pyrimidine hydrochloride] | ~12 | 0.33 | 0.72 | 0.69
15 | Cc1cc(N2CCc3ccsc3C2C)nc(Nc2ccc(F)cc2)n1.Cl (centres unmarked) [Example 53, 6-methyl-4-(7-methyl-4,5,6,7-tetrahydrothieno[2,3-c]pyridin-6-yl)-2-(4-fluorophenylamino)pyrimidine hydrochloride] | 2.1 | 1.14 | 0.55 | 0.47
16 | CCc1cc(N2CCc3ccccc3C2)nc(Nc2ccccc2C)n1.Cl [Example 40, 6-ethyl-2-(2-methylphenylamino)-4-(1,2,3,4-tetrahydroisoquinolin-2-yl)pyrimidine hydrochloride] | 0.7 | 0.36 | 0.74 | 0.71
17 | CCCc1cc(N2CCc3ccccc3C2C)nc(Nc2ccc(F)cc2)n1.Cl (centres unmarked) [Example 10, 4-(1-methyl-1,2,3,4-tetrahydroisoquinolin-2-yl)-6-propyl-2-(4-fluorophenylamino)pyrimidine hydrochloride] | 10.6 | 0.47 | 0.55 | 0.58
18 | Cc1cc(F)ccc1Nc1nc(N2CCc3ccccc3C2)nc2c1CCCC2.Cl [Example 83, 4-(2-methyl-4-fluorophenylamino)-2-(1,2,3,4-tetrahydroisoquinolin-2-yl)-5,6,7,8-tetrahydroquinazoline hydrochloride] | 1.4 | 1.29 | 1.13 | 1.19
19 | Cc1cc(F)ccc1Nc1nc(C)c(C)c(N2CCc3ccccc3C2)n1.Cl [Example 41, 5,6-dimethyl-2-(2-methyl-4-fluorophenylamino)-4-(1,2,3,4-tetrahydroisoquinolin-2-yl)pyrimidine hydrochloride] | 0.6 | 1.87 | 1.12 | 0.94
20 | Cc1cc(Nc2ccc(F)cc2)nc(N2CCc3ccccc3C2C)n1.Cl (centres unmarked) [Example 58, 6-methyl-4-(4-fluorophenylamino)-2-(1-methyl-1,2,3,4-tetrahydroisoquinolin-2-yl)pyrimidine hydrochloride] | > 25 | 0.16 | 0.35 | 0.58
